# Results: the supplement of paper PMC11061612
# Tests used:
# [1] = system: NCI-H1666 (Lung Adenocarcinoma); assay: combination Emax (second highest fraction inhibited in the dose matrix, 72 h); higher = more inhibition; extreme values may be limits of the assay
# Procedure, shortened: (§1)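 Bliss excess equals the observed combination effect minus the expected value EA + EB − EA·EB, where EA and EB are the effects of each agent alone. Combination Emax is the second-highest inhibition within the matrix. Inhibition was scaled from CellTiter-Glo 2.0 luminescence, with 0 set by vehicle wells and 1 by blank wells, after 72 hours of two-drug dosing of cells plated in 1536-well plates.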
# [2] = system: FU97 (Gastric Carcinoma); assay: as above
# Procedure, shortened: as §1
# [3] = system: HCC1954 (Breast Carcinoma); assay: as above
# Procedure, shortened: as §1
# [4] = system: NCI-H64 (Small Cell Lung Carcinoma); assay: Bliss excess, mean over the matrix (fraction); higher = more synergy
# Procedure, shortened: as §1
# [5] = system: 8-MG-BA (Glioblastoma); assay: as above
# Procedure, shortened: as §1
# [6] = system: LN-405 (Glioblastoma); assay: as above
# Procedure, shortened: as §1
# [7] = system: COLO-320-HSR (Colorectal Carcinoma); assay: as above
# Procedure, shortened: as §1
# [8] = system: ECC10 (Gastric Carcinoma); assay: as above
# Procedure, shortened: as §1
# [9] = system: PANC-10-05 (Pancreatic Carcinoma); assay: as above
# Procedure, shortened: as §1
# [10] = system: OS-RC-2 (Kidney Carcinoma); assay: as above
# Procedure, shortened: as §1
# [11] = system: PA-1 (Ovarian Carcinoma); assay: as above
# Procedure, shortened: as §1
# [12] = system: TT2609-C02 (Thyroid Gland Carcinoma); assay: as above
# Procedure, shortened: as §1
# [13] = system: HCC1954 (Breast Carcinoma); assay: as above
# Procedure, shortened: as §1
# [14] = system: A549 (Lung Adenocarcinoma); assay: as above
# Procedure, shortened: as §1
# [15] = system: MDST8 (Colorectal Carcinoma); assay: as above
# Procedure, shortened: as §1
# [16] = system: NCI-H1693 (Lung Adenocarcinoma); assay: as above
# Procedure, shortened: as §1
# [17] = system: NCI-H2141 (Small Cell Lung Carcinoma); assay: as above
# Procedure, shortened: as §1
# [18] = system: VCaP (Prostate Carcinoma); assay: as above
# Procedure, shortened: as §1
# [19] = system: IGR-37 (Melanoma); assay: as above
# Procedure, shortened: as §1
# [20] = system: NY (Osteosarcoma); assay: as above
# Procedure, shortened: as §1
SMILES,combination Emax [1],combination Emax [2],combination Emax [3],Bliss excess [4],Bliss excess [5],Bliss excess [6],Bliss excess [7],Bliss excess [8],Bliss excess [9],Bliss excess [10],Bliss excess [11],Bliss excess [12],Bliss excess [13],Bliss excess [14],Bliss excess [15],Bliss excess [16],Bliss excess [17],Bliss excess [18],Bliss excess [19],Bliss excess [20]
"CN(C)CCCOc1ccc(-c2ccc3ncc4c(c3c2)n(C2CCOCC2)c(=O)n4C)cn1 [AZD0156] + C[C@@H]1COCCN1C2=NC(=NC(=C2)C3(CC3)[S@](=N)(=O)C)C4=C5C=CNC5=NC=C4 [AZD6738] (first compound max 1 µM, 7x7, partner max 10 µM)",0.331,0.414,0.435,-0.0368,0.0389,-0.0236,-0.0146,-0.0104,-0.0415,-0.0419,-0.0238,-0.0067,0.0016,-0.0652,0.0296,-0.0424,-0.0766,-0.037,-0.0153,-0.0372
"Cc1c2c(nn1C)CSCc1cc(n(C)n1)CSc1cc(c3ccccc3c1)OCCCc1c(C(=O)O)n(C)c3c-2c(Cl)ccc13 [AZD5991] + CCN(CCO)CCCOc1ccc2c(Nc3cc(CC(=O)Nc4cccc(F)c4)[nH]n3)ncnc2c1 [AZD2811] (first compound max 1 µM, 7x7, partner max 1 µM)",0.334,0.284,0.98,0.144,0.114,0.0122,0.0198,0.0058,-0.0242,-0.0634,0.0489,0.0119,0.105,-0.0592,0.0586,0.0102,0.0657,0.08,0.0533,0.0542
"NC1(C(=O)N[C@@H](CCO)c2ccc(Cl)cc2)CCN(c2ncnc3[nH]ccc23)CC1 [Capivasertib] + CC(=O)c1c(C)c2cnc(Nc3ccc(N4CCNCC4)cn3)nc2n(C2CCCC2)c1=O [Palbociclib] (first compound max 10 µM, 7x7, partner max 10 µM)",0.382,0.358,0.74,-0.0332,-0.0501,-0.0295,-0.0013,-0.011,-0.0526,0.0249,0.0288,-0.0398,-0.0292,-0.103,-0.0378,-0.0631,-0.0936,0.0119,-0.0344,-0.0134
"COc1cccc(OCCCN)c1-c1cc(Nc2cnc(C#N)cn2)n[nH]1 [Prexasertib] + C=CCn1c(=O)c2cnc(Nc3ccc(N4CCN(C)CC4)cc3)nc2n1-c1cccc(C(C)(C)O)n1 [AZD1775] (first compound max 1 µM, partner max 1 µM)",0.431,0.367,0.963,0.0127,0.0358,0.0469,0.136,0.115,-0.0342,-0.0531,0.03,0.0015,0.114,0.139,0.0758,-0.0139,-0.0348,0.022,0.0322,-0.008
"COc1cccc(OCCCN)c1-c1cc(Nc2cnc(C#N)cn2)n[nH]1 [Prexasertib] + CN(C)CCCOc1ccc(-c2ccc3ncc4c(c3c2)n(C2CCOCC2)c(=O)n4C)cn1 [AZD0156] (first compound max 1 µM, 7x7, partner max 1 µM)",0.35,0.386,0.862,-0.0359,-0.0349,0.0013,0.0111,0.0071,-0.0435,-0.0393,0.0031,-0.0426,-0.0298,-0.0276,-0.0216,-0.0349,0.009,-0.0463,0.0026,0.0007
"Cc1c2c(nn1C)CSCc1cc(n(C)n1)CSc1cc(c3ccccc3c1)OCCCc1c(C(=O)O)n(C)c3c-2c(Cl)ccc13 [AZD5991] + Cn1cnc2c(F)c(Nc3ccc(Br)cc3Cl)c(C(=O)NOCCO)cc21 [Selumetinib] (first compound max 1 µM, 7x7, partner max 3 µM)",0.736,0.411,0.982,-0.026,0.098,0.003,0.0173,0.0176,-0.0186,-0.0557,0.0085,-0.0402,0.0333,-0.0344,-0.0014,0.0314,0.0056,-0.0213,0.0044,-0.0312
"COc1cccc(OCCCN)c1-c1cc(Nc2cnc(C#N)cn2)n[nH]1 [Prexasertib] + O=C(c1cc(Cc2n[nH]c(=O)c3ccccc23)ccc1F)N1CCN(C(=O)C2CC2)CC1 [Olaparib] (first compound max 1 µM, 7x7, partner max 10 µM)",0.26,0.299,0.866,-0.0438,0.0262,0.0837,-0.131,-0.0685,-0.0424,-0.0181,0.0083,-0.0062,-0.0566,-0.0109,-0.0484,-0.1,-0.0509,-0.041,-0.0327,-0.0128
"COc1cccc(OCCCN)c1-c1cc(Nc2cnc(C#N)cn2)n[nH]1 [Prexasertib] + C[C@@H]1COCCN1C2=NC(=NC(=C2)C3(CC3)[S@](=N)(=O)C)C4=C5C=CNC5=NC=C4 [AZD6738] (first compound max 1 µM, 7x7, partner max 10 µM)",0.463,0.308,0.878,-0.0184,-0.0239,-0.136,-0.0406,0.0929,0.0258,0.0743,-0.0438,-0.0002,0.0079,0.0241,-0.0209,0.0816,-0.047,-0.0267,-0.0621,-0.0031
"COc1nnc2ccc(N3CCC(c4ccc(OCCN5CCN(C)C(=O)[C@H]5C)cc4)CC3)nn12 [AZD5153] + Cc1c2c(nn1C)CSCc1cc(n(C)n1)CSc1cc(c3ccccc3c1)OCCCc1c(C(=O)O)n(C)c3c-2c(Cl)ccc13 [AZD5991] (first compound max 1 µM, 7x7, partner max 1 µM)",0.423,0.95,0.956,-0.0074,-0.0367,-0.0084,-0.112,0.0743,-0.0759,-0.0106,0.0109,-0.0295,0.0771,-0.0918,0.0069,-0.0418,0.0096,-0.0242,0.0608,-0.0656
"COc1nnc2ccc(N3CCC(c4ccc(OCCN5CCN(C)C(=O)[C@H]5C)cc4)CC3)nn12 [AZD5153] + CCN(CCO)CCCOc1ccc2c(Nc3cc(CC(=O)Nc4cccc(F)c4)[nH]n3)ncnc2c1 [AZD2811] (first compound max 1 µM, 7x7, partner max 1 µM)",0.432,0.766,0.263,0.0609,0.0121,-0.0761,-0.0417,-0.103,-0.0713,-0.0473,0.032,-0.076,-0.011,-0.0407,0.0761,-0.098,0.0226,-0.0345,0.0031,-0.0314
"Cc1c2c(nn1C)CSCc1cc(n(C)n1)CSc1cc(c3ccccc3c1)OCCCc1c(C(=O)O)n(C)c3c-2c(Cl)ccc13 [AZD5991] + C[C@@H](Nc1cc(F)cc(F)c1)c1cc(C(=O)N(C)C)cc2c(=O)cc(N3CCOCC3)oc12 [AZD8186] (first compound max 1 µM, 7x7, partner max 3 µM)",0.386,0.445,0.974,-0.0067,0.0956,0.028,-0.0004,0.024,-0.0473,-0.0226,0.049,-0.0192,0.031,0.01,-0.0268,-0.0461,0.0257,-0.0086,0.038,0.08
"NC1(C(=O)N[C@@H](CCO)c2ccc(Cl)cc2)CCN(c2ncnc3[nH]ccc23)CC1 [Capivasertib] + CC(C)n1c(=O)n(C)c2cnc3cc(F)c(-c4ccc(OCCCN5CCCCC5)nc4)cc3c21 [AZD1390] (first compound max 10 µM, 7x7, partner max 0.3 µM)",0.31,0.361,0.752,-0.0284,-0.0557,-0.0912,-0.0512,-0.0231,-0.101,-0.0779,-0.102,-0.0609,-0.056,-0.0678,-0.0327,-0.111,-0.0051,-0.0389,-0.0528,-0.0643
"CC1(C)CCC(CN2CCN(c3ccc(C(=O)NS(=O)(=O)c4ccc(NCC5CCOCC5)c([N+](=O)[O-])c4)c(Oc4cnc5[nH]ccc5c4)c3)CC2)=C(c2ccc(Cl)cc2)C1 [Venetoclax] + Cc1cc2ncnn2cc1Nc1ncc2c(n1)n(C1CCOCC1)c(=O)n2C [AZD7648] (first compound max 1 µM, 7x7, partner max 10 µM)",0.232,0.494,0.336,-0.056,-0.0139,0.015,-0.0098,0.0065,-0.0721,-0.0584,-0.0014,-0.0014,-0.0034,-0.0445,-0.0151,0.0211,-0.0491,-0.0248,0.0149,0.0011
"Cc1c2c(nn1C)CSCc1cc(n(C)n1)CSc1cc(c3ccccc3c1)OCCCc1c(C(=O)O)n(C)c3c-2c(Cl)ccc13 [AZD5991] + CC1(C)CCC(CN2CCN(c3ccc(C(=O)NS(=O)(=O)c4ccc(NCC5CCOCC5)c([N+](=O)[O-])c4)c(Oc4cnc5[nH]ccc5c4)c3)CC2)=C(c2ccc(Cl)cc2)C1 [Venetoclax] (first compound max 1 µM, 7x7, partner max 1 µM)",0.242,0.243,0.967,0.0308,0.048,0.0082,0.0419,0.277,-0.0506,-0.0686,0.0664,-0.0069,0.0401,-0.0642,-0.0359,-0.025,0.107,-0.0351,-0.0167,0.0232
